{"source": "patent US6596508B2", "about": "“CRE-inducible expression system” (National Research Council of Canada, priority 1999, dated 2003)", "key": {"prostanoid EP2 receptor [1]": {"target": "prostanoid EP2 receptor", "test": "Transient expression and activation of the EP2 receptor in the HEK293-pCRE5/SEAP transfectoma (SEAP reporter)", "format": "cell-based", "settings": "transiently transfected EP2 receptor, PGE2 challenge for 6 hours, SEAP readout; read-out: estimated EC50", "procedure": "Twenty four hours after transfection with a plasmid containing the prostanoid EP2 receptor (closed symbol) or the empty vector (open symbol), the HEK293-pCRE5/SEAP transfectoma was challenged with PGE2 for 6 hours (FIG. 4). The estimated EC50 was below 1 nM of PGE2."}, "prostanoid EP2 receptor [2]": {"target": "T1, prostanoid EP2 receptor (Homo sapiens, UniProt P43116)", "T1 construct": "expressed in transfected cells", "T1 sequence (P43116 whole entry, species assumed)": "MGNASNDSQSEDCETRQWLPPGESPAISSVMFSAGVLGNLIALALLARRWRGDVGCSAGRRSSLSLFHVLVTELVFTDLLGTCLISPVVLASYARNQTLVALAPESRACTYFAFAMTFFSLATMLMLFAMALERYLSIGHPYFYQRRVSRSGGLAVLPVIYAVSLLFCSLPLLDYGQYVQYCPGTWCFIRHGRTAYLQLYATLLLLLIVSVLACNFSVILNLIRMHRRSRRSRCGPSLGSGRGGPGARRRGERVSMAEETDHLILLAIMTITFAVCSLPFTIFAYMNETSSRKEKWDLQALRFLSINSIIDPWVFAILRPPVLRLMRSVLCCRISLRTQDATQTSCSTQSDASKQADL", "test": "HEK293-pCRE5/SEAP transfectoma stably transfected with EP2 receptor, response to PGE2 with or without IBMX", "format": "cell-based", "settings": "stable EP2 transfectant, 100 μM IBMX vs absence, 6 h", "procedure": "A HEK293-pCRE5/SEAP transfectoma was stably transfected with the prostanoid EP2 receptor and challenged with PGE2 in the absence (empty circles) or presence (closed circles) of 100 μM IBMX for 6 h and SEAP activity determined (FIG. 5). In this case, EC50 was shifted 10-fold to the left."}, "[3]": {"test_system": "HEK293-pCRE5/SEAP transfectoma", "test": "Forskolin-induced SEAP production in stable HEK293-pCRE5/SEAP transfectoma, 50 h", "format": "cell-based, human", "procedure": "Upper Panel A: Stable HEK293-pCRE5/SEAP transfectoma was stimulated with 20 μM forskolin with or without 100 μM IBMX or 200 μM theophylline for 50 h and SEAP activity was then measured on an aliquot of the supernatant (FIG. 7)."}}, "note": "pEC50: −log10 of the molar value.", "data": [{"smiles": "CCCCC[C@H](O)/C=C/[C@H]1[C@H](O)CC(=O)[C@@H]1C/C=C\\CCCC(=O)O", "note": "[PGE2]", "values": [{"measurement": "pEC50", "setting": "prostanoid EP2 receptor [1]", "value": "> 9.00"}, {"measurement": "EC50 shift to the left in presence of IBMX", "setting": "prostanoid EP2 receptor [2]", "value": 10, "unit": "fold"}]}, {"smiles": "C=C[C@@]1(C)CC(=O)[C@]2(O)[C@@]3(C)[C@@H](O)CCC(C)(C)[C@@H]3[C@H](O)[C@H](OC(C)=O)[C@@]2(C)O1", "note": "[forskolin]", "values": [{"measurement": "fold-induction of SEAP activity (Panel B, independent experiment)", "setting": "[3]; 20 μM forskolin with or without 100 μM IBMX", "value": 198, "unit": "fold"}, {"measurement": "fold-induction of SEAP activity (Panel A)", "setting": "[3]; 20 μM forskolin with or without 100 μM IBMX or 200 μM theophylline", "value": 128, "unit": "fold"}]}]}
